From patent publication US6664231B1, “Anti-fungal peptides” (priority 1993, dated 2003)

Assays:
Candida lusitaniae [1] = type: cell-based
Protocol: (§1) In additional experiments, a fluorescence-activated cell sorter (FACS) based assay was developed to test the fungicidal activity of the peptides. […] Difco) agar. Several colonies were picked from the agar plate and inoculated into 5 mL of Sabouraud's Dextrose media in a sterile 10 mL polypropylene tube. The fungal cultures were incubated for about 18 hours at 30° C. […] The culture were centrifuged at 3000 rpm for 5 minutes (Sorvall RT 6000B). After centrifugation, the supernatant was decanted leaving the fungal pellets in the centrifuge tubes. The pellets were resuspended in 15 mL of SDB. Both suspensions were combined into one tube and mixed to generate a stock culture. […] After determining the concentration of the stock, appropriate dilutions were made with Sabouraud's Dextrose media to obtain 100 mL of 1×10^6 cell/mL. […] After the 1 hour incubation, all the tubes were centrifuged at 3000 rpm for 5 minutes. […] Louis, Mo.) in Dulbecco's PBS (DPBS, GIBCO, Grand Island, N.Y.) except the autofluorescence control, which was resuspended in DPBS alone. The tubes were mixed and incubated in the dark at room temperature for at least 20 minutes. […] The settings were adjusted appropriately to the following approximate parameters: Cells were analyzed (10,000 cells/tube) and their respective fluorescence determined. […] The population of dead (i.e., propidium iodide stained) fungal cells was determined by a fluorescence threshold between the negative control and positive control.

Candida glabrata [2] = type: cell-based
Protocol: as §1

Candida parasilosis = type: cell-based
Protocol: as §1

[3] = type: physicochemical; conditions: 37° C., at 50 days, acetate buffered saline
Protocol: The lyophilized peptide was dissolved to a concentration of 1 mg/mL in three different buffers. The three formulation buffers used were (a) 10 mM solution acetate, 150 mM sodium chloride pH 4, (b) 10 mM sodium acetate, 150 mM sodium chloride pH 5 and (c) 10 mM sodium acetate, 150 mM sodium chloride pH 6. The formulated peptide samples were incubated at 4° C. and 37C. At each time point, samples were withdrawn from each vial and assayed by C18 reverse phase BPLC, absorbance at 280 nm, and SDS-PAGE. The study was conducted for 50 days.
A 0.46×25 cm Vydac C18 column (cat no. 218TP54) was used on a Shimadzu HPLC system. The column was run in binary gradient mobile phases: A=Water+0.05% TFA, B=acetonitrile+0.05% TFA. […]
Samples were analyzed by SDS polyacrylamide gel electrophoresis, run on Novex 10-20% tricine precast gels (Novex, La Jolla, Calif., EC6625). […] In addition, samples were analyzed photometrically. For this, samples withdrawn at each time point were diluted 6-fold with Millipore water and absorbance was measured at 280 nm and scanning from 210 nm to 340 nm using a Shimadzu UV 160 spectrophotometer. AU samples were filtered prior to absorbance measurement(s).
XMP.284 was soluble in water and unbuffered saline. […] There was very little product loss, as measured by absorbance at 280 nm, in 0.15 M saline buffered with 10 mM acetate at pH 4, 5 or 6. […]

Candida parapsilosis = assay: Radial diffusion assay, Candida species (Table 2); type: cell-based
Protocol: (§2) The anti-fungal activity of Domain III derived peptides was also evaluated in vitro against a variety of fungal species, including Candida glabrata, Candida krusei, Candida lusitaniae, Candida parapsilosis, and Candida tropicalis. For these experiments, one colony of each of the above-listed Candida strains was picked from a Sabouraud's dextrose agar (SDA) plate and inoculated into 5 mL of Sabouraud's dextrose broth (SDB, 2% dextrose and 1% neopeptone) or, for C. krusei, Yeast Malt broth (YM, Becton Dickenson, Cockeysville, Md., cat no. BL 11405) in 12 mL polyproplyene snap-cap tubes. The tube cultures were incubated overnight with shaking at 37° C.
(§3) Cultures were harvested when the OD570 of a 1:10 dilution was greater than or equal to the following values: 0.083 for Candida glabrata, 0.154 for Candida krusei, 0.117 for Candida lusitaniae, 0.076 for Candida parapsilosis, and 0.192 for Candida tropicalis. Cells were centrifuged for 7 minutes in an Eppendorf microfuge at 3,000 rpm (about 1,500 g). The cell pellet was resuspended in 1 mL PBS and approximately 1×10^7 cells in about 0.5 mL were added to 10 mL of cooled underlay agar (3% SBD, 1% agarose, 0.02% Tween 20, 10 mM sodium phosphate buffer, pH 7.4 at about 45° C.). The suspension was poured into square petri plates, allowed to solidify, and wells cut as described above.
(§4) Peptides were two-fold serially diluted with D-PBS from about 20 μL of a starting concentration of approximately 1 mg/mL. Five μL of peptide dilution were added per well and allowed to diffuse for at least about 30 minutes into the agar at […] (to allow complete diffusion). Then 10 mL of molten overlayer agarose (6% SDB, 1% agarose, 10 mM sodium phosphate buffer, pH 7.4 at about 45° C.) were added and the plates were incubated inverted at […] overnight. Plates were stained with a dilute Coomassie solution, inhibition zones were measured with calipers and net areas were calculated, then converted to pmole values by PROBIT analysis.

Candida tropicalis = assay: Radial diffusion assay, Candida species (Table 2); type: cell-based
Protocol: as §2, §3, §4

Candida lusitaniae [4] = assay: Radial diffusion assay, Candida species (Table 2); type: cell-based
Protocol: as §2, §3, §4

Candida krusei = assay: Radial diffusion assay, Candida species (Table 2); type: cell-based
Protocol: as §2, §3, §4

Candida glabrata [5] = assay: Radial diffusion assay, Candida species (Table 2); type: cell-based
Protocol: as §2, §3, §4

Compound	Candida lusitaniae IC50 (Candida lusitaniae [1])	Candida glabrata IC50 (Candida glabrata [2])	Candida parasilosis IC50 (Candida parasilosis)	new HPLC peaks accumulated [3]	Anti-fungal activity: pmol/30 mm^2 zone, Candida parapsilosis (Candida parapsilosis)	Anti-fungal activity: pmol/30 mm^2 zone, Candida tropicalis (Candida tropicalis)	Anti-fungal activity: pmol/30 mm^2 zone, Candida lusitaniae (Candida lusitaniae [4])	Anti-fungal activity: pmol/30 mm^2 zone, Candida krusei (Candida krusei)	Anti-fungal activity: pmol/30 mm^2 zone, Candida glabrata (Candida glabrata [5])
H-SKVKWLIQLFHKK-NH2 [XMP.284]	1.20 µg/mL	6.27 µg/mL	1.82 µg/mL	less than 0.5%	–	–	–	–	–
H-KSKVGWLIQLFHKK-NH2 [XMP.13]	–	–	–	–	1,502 pmol/30 mm^2 zone	452 pmol/30 mm^2 zone	746 pmol/30 mm^2 zone	1,747 pmol/30 mm^2 zone	1,022 pmol/30 mm^2 zone
C[C@@H]1[C@H](O)[C@@H](C)/C=C/C=C/C=C/C=C/C=C/C=C/C=C/[C@H](O[C@@H]2O[C@H](C)[C@@H](O)[C@H](N)[C@@H]2O)C[C@@H]2O[C@](O)(C[C@@H](O)C[C@@H](O)[C@H](O)CC[C@@H](O)C[C@@H](O)CC(=O)O[C@H]1C)C[C@H](O)[C@H]2C(=O)O [Amphotericin B, amphotericin B, reference compound]	–	–	–	–	91 pmol/30 mm^2 zone	108 pmol/30 mm^2 zone	35 pmol/30 mm^2 zone	120 pmol/30 mm^2 zone	<17 pmol/30 mm^2 zone
